Data published in patent US8975417B2, “Pyrazolopyrrolidine derivatives and their use in the treatment of disease” (Novartis AG, priority 2013, dated 2015).

System: MV-4-11 cells
Assay: Cell growth inhibition assay (CellTiter-Glo), MV-4-11
Format: cell-based
Conditions: Homo sapiens, MV4-11, read-out: MV-4-11 TGI
Method in brief: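 Dose-response over 3-fold dilutions from 10 μM; 0.1% DMSO control. Endpoint: CellTiter-Glo ATP signal, background-subtracted and day 0-corrected.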

| SMILES | IC (total growth inhibition) [µM] |
| --- | --- |
| Cc1ncccc1-n1nc(C)c2c1C(=O)N(c1cc(C)c(=O)n(C)c1)C2c1ccc(Cl)cc1 (stereo not drawn) [Example 82, 4-(4-chlorophenyl)-5-(1,5-dimethyl-6-oxo-1,6-dihydropyridin-3-yl)-3-methyl-1-(2-methylpyridin-3-yl)-4,5-dihydropyrrolo[3,4-c]pyrazol-6(1H)-one] | 0.139 |
| Cc1nn(C2CCC2)c2c1C(c1ccc(Cl)cc1)N(c1cc(C)c(=O)n(C)c1)C2=O (stereo not drawn) [Example 94, 4-(4-chlorophenyl)-1-cyclobutyl-5-(1,5-dimethyl-6-oxo-1,6-dihydropyridin-3-yl)-3-methyl-4,5-dihydropyrrolo[3,4-c]pyrazol-6(1H)-one] | 0.0318 |
| CCOC(=O)N1CC(n2nc(C)c3c2C(=O)N(c2cc(C)c(=O)n(C)c2)C3c2ccc(Cl)cc2)C1 (stereo not drawn) [Example 155, Ethyl 3-(4-(4-chlorophenyl)-5-(1,5-dimethyl-6-oxo-1,6-dihydropyridin-3-yl)-3-methyl-6-oxo-5,6-dihydropyrrolo[3,4-c]pyrazol-1(4H)-yl)azetidine-1-carboxylate] | 0.117 |
| CCn1nc2c(c1C)C(c1ccc(Cl)cc1)N(c1cc(C)c3nnc(C)n3c1)C2=O (stereo not drawn) [Example 115, 4-(4-chlorophenyl)-5-(3,8-dimethyl-[1,2,4]triazolo[4,3-a]pyridin-6-yl)-2-ethyl-3-methyl-4,5-dihydropyrrolo[3,4-c]pyrazol-6(2H)-one] | 0.0482 |
| CCc1nn(CCO)c2c1C(c1ccc(Cl)cc1)N(c1cc(C)c3onc(C)c3c1)C2=O (stereo not drawn) [Example 79, 4-(4-chlorophenyl)-5-(3,7-dimethylbenzo[d]isoxazol-5-yl)-3-ethyl-1-(2-hydroxyethyl)-4,5-dihydropyrrolo[3,4-c]pyrazol-6(1H)-one] | 0.42 |
| Cc1nn(C2CC2)c2c1C(c1ccc(Cl)cc1)N(c1ccc3nnn(C)c3n1)C2=O (stereo not drawn) [Example 102, 4-(4-chlorophenyl)-1-cyclopropyl-3-methyl-5-(3-methyl-3H-[1,2,3]triazolo[4,5-b]-pyridin-5-yl)-4,5-dihydropyrrolo[3,4-c]pyrazol-6(1H)-one] | 0.141 |
| Cc1nn(C2CC2)c2c1C(c1cccc(C(F)(F)F)c1)N(c1cc(C)c(=O)n(C)c1)C2=O (stereo not drawn) [Example 96, 1-cyclopropyl-5-(1,5-dimethyl-6-oxo-1,6-dihydropyridin-3-yl)-3-methyl-4-(3-(trifluoromethyl)phenyl)-4,5-dihydropyrrolo[3,4-c]pyrazol-6(1H)-one] | 1.24 |
| COc1ncc(-n2nc(C)c3c2C(=O)N(c2cc(C)c(=O)n(C)c2)[C@@H]3c2ccc(Cl)cc2)c(OC)n1 [Example 100, (R)-4-(4-chlorophenyl)-1-(2,4-dimethoxypyrimidin-5-yl)-5-(1,5-dimethyl-6-oxo-1,6-dihydropyridin-3-yl)-3-methyl-4,5-dihydropyrrolo[3,4-c]pyrazol-6(1H)-one] | 0.0582 |
| Cc1cc(N2C(=O)c3nn(C(=O)N(C)C)c(C)c3[C@H]2c2ccc(Cl)cc2)cn2c(C)nnc12 [Example 150, (R)-4-(4-chlorophenyl)-5-(3,8-dimethyl-[1,2,4]triazolo[4,3-a]pyridin-6-yl)-N,N,3-trimethyl-6-oxo-5,6-dihydropyrrolo[3,4-c]pyrazole-2(4H)-carboxamide] | 0.0863 |
